From PubChem BioAssay AID1996
Values after ≈ are worked out from the molar mass of the structure shown.

Details: buffer; pH 7.4; 200.0 µM
For `CC(C)Cn1c(N)c(C=O)c(=O)n(C)c1=O`, the solubility kinetic was greater than 33.8 µg/mL.
For `CCOC(=O)C1CCN(C(=O)COc2ccc(C(=O)c3ccccc3)cc2)CC1`, the solubility kinetic was 36.6 µg/mL (≈ 92.6 µM).
With `O=C(O)c1nccnc1C(=O)NCc1csc2ccc(Cl)cc12` the solubility kinetic was 46.4 µg/mL (≈ 133 µM).
With `O=C(NC1CCCCCCC1)c1ccc(F)cc1` the solubility kinetic was 25.8 µg/mL (≈ 103 µM).
In the case of `NC1=NC(=Nc2cccc(S(N)(=O)=O)c2)c2ccccc21`, the solubility kinetic is reported as greater than 45.1 µg/mL.
Work on `O=C(OCC(=O)c1ccc[nH]1)c1ccc(Cl)c(Cl)c1` yielded a solubility kinetic of 6.8 µg/mL (≈ 22.8 µM).
`CC(OC(=O)CCc1nc2ccccc2c(=O)[nH]1)C(=O)Nc1cccc(C(F)(F)F)c1` (configuration not stated) showed a solubility kinetic greater than 65 µg/mL.
In the case of `CN=C(c1ccco1)n1c(=S)nc(-c2ccco2)n(C)c1=S`, the solubility kinetic is reported as 39.6 µg/mL (≈ 119 µM).
`COc1ccccc1Nc1nc(N)nc(CN2CCC(C)CC2)n1` gave a solubility kinetic greater than 49.3 µg/mL.
In the case of `CC(=O)c1cccc(S(=O)(=O)NCCC(=O)O)c1`, the solubility kinetic is reported as 25.4 µg/mL (≈ 93.6 µM).
With `CCN(CC)CCn1c(N)nc2ccccc21.Cl` the solubility kinetic was 44.7 µg/mL.
Compound `NC(=O)c1ccccc1NC(=O)CCn1c(=S)oc2ccccc21` has a solubility kinetic of 43.2 µg/mL (≈ 127 µM).
`COc1cccc(CNC(=O)CCCSc2ccccc2)c1` showed a solubility kinetic of 35 µg/mL (≈ 111 µM).
`COc1cc2c(cc1OC)CN(C(=S)Nc1ccc(Cl)cc1)CC2` showed a solubility kinetic of less than 0.4 µg/mL.
Work on `CCOc1ccc(NCCC(O)c2ccc(F)cc2)cc1` (configuration not stated) yielded a solubility kinetic of 30.9 µg/mL (≈ 107 µM).
`Cc1cc(NC(=O)CSc2nc3c(C)cccc3cc2C)no1` gave a solubility kinetic of less than 0.2 µg/mL.
`Fc1ccc(NCc2nnc3n2CCCCC3)cc1` gave a solubility kinetic greater than 39 µg/mL.
`Cl.O=C(CCl)N1CCN(CC(=O)N2CCCC2)CC1` gave a solubility kinetic greater than 46.5 µg/mL.
With `COc1ccc(C(=O)OCC(=O)NC2CC2)cc1F` the solubility kinetic was 32.6 µg/mL (≈ 122 µM).
Work on `CN(c1ccccc1)S(=O)(=O)c1cccc(NC(=O)c2ccc(Cl)c([N+](=O)[O-])c2)c1` yielded a solubility kinetic of 1.8 µg/mL (≈ 4.04 µM).
Compound `C[C@@H](C(=O)Nc1cccnc1)n1c(=O)[nH]c2ccccc2c1=O` has a solubility kinetic greater than 46.5 µg/mL.
In the case of `CC(C)(C)c1ccc(Oc2ccc(NC(=O)c3ccco3)cn2)cc1`, the solubility kinetic is reported as less than 0.4 µg/mL.
`CCOC(=O)C1=C(C)N(C)C(=O)NC1c1c(O)ccc2ccccc12` (configuration not stated) showed a solubility kinetic greater than 51.1 µg/mL.
Compound `O=S(=O)(NC(=S)c1ccccc1)c1ccc(F)cc1` has a solubility kinetic greater than 44.3 µg/mL.
With `Cc1ccc(-c2cnc(-c3ccccc3C(=O)O)o2)cc1` the solubility kinetic was 35.2 µg/mL (≈ 126 µM).
`Cc1cc(C)cc(OCCN2CCOCC2)c1` gave a solubility kinetic of 22.5 µg/mL (≈ 95.6 µM).
With `O=C(O)c1nccnc1C(=O)Nc1ccccc1-c1ccccc1` the solubility kinetic was greater than 47.9 µg/mL.
For `CCCCn1c(=O)c(C(=O)Nc2ccccc2N)c(O)c2ccccc21`, the solubility kinetic was less than 0.3 µg/mL.
With `COc1ccccc1N1C(=O)C(=O)N(C)C1=O` the solubility kinetic was greater than 35.1 µg/mL.
Work on `COC(=O)c1ccc(CO/N=C/c2cccc([N+](=O)[O-])c2)cc1` yielded a solubility kinetic of less than 0.3 µg/mL.
With `CN(Cc1cccs1)C(=O)COc1cccc2c1OC(C)(C)C2` the solubility kinetic was greater than 49.7 µg/mL.
Compound `CC1CN(C(C)C(=O)NC(c2ccccc2)c2ccccc2)CC(C)O1` (configuration not stated) has a solubility kinetic greater than 52.9 µg/mL.
Compound `CN(C(=O)CSc1nnc(-c2ccc(Cl)cc2)n1C)C1CCS(=O)(=O)C1` (configuration not stated) has a solubility kinetic greater than 62.2 µg/mL.
`CCN1C(=O)c2cccc3c(Cl)ccc(c23)C1=O` gave a solubility kinetic of 1 µg/mL (≈ 3.85 µM).
Compound `CC1(c2ccccc2Cl)NC(=O)N(CC(=O)N2CCc3ccccc32)C1=O` (configuration not stated) has a solubility kinetic of 10.1 µg/mL (≈ 26.3 µM).
In the case of `CN(CC(=O)Nc1cccc(F)c1)C(=O)CSc1ccccc1F`, the solubility kinetic is reported as 46.7 µg/mL (≈ 133 µM).
In the case of `COc1ccc(OCCn2ccnc2)cc1`, the solubility kinetic is reported as 26.4 µg/mL (≈ 121 µM).
Compound `O=C(CN1CCOCC1)N1c2ccccc2Sc2ccccc21` has a solubility kinetic greater than 49 µg/mL.
With `Cc1ccc(CC(=O)Nc2nccs2)cc1C` the solubility kinetic was 3.3 µg/mL (≈ 13.4 µM).
Compound `O=C(Nc1nnc2n1CCS2)c1ccc(Br)o1` has a solubility kinetic greater than 47.3 µg/mL.
With `Cc1ccc2c(COC(=O)CNS(=O)(=O)c3ccccc3)cc(=O)oc2c1` the solubility kinetic was 21.6 µg/mL (≈ 55.8 µM).
Work on `O=C(Oc1ccccc1)c1cccnc1Oc1ccccc1` yielded a solubility kinetic of 20.7 µg/mL (≈ 71.1 µM).
`O=C(Cc1ccc(Cl)c(Cl)c1)Nc1cccnc1` gave a solubility kinetic greater than 42.2 µg/mL.
With `Cc1ccc(Sc2ncccc2O)cc1` the solubility kinetic was 17.4 µg/mL (≈ 80.1 µM).
With `O=C(Nc1ccc(Cl)c(NC(=O)c2cccs2)c1)c1ccco1` the solubility kinetic was 37.4 µg/mL (≈ 108 µM).
Work on `CN(C)/C=N/c1nc(-c2ccc3ccccc3c2)cs1` yielded a solubility kinetic of 16 µg/mL (≈ 56.9 µM).
`Cn1c(N)c(C(=O)COC(=O)COc2ccc(Cl)cc2Cl)c(=O)n(C)c1=O` showed a solubility kinetic of 4.7 µg/mL (≈ 11.3 µM).
With `NC(=S)N1CCCc2ccccc21` the solubility kinetic was greater than 28.8 µg/mL.
For `COc1ccc(-c2cnc(N)n2C)cc1`, the solubility kinetic was 26 µg/mL (≈ 128 µM).
For `Cc1occc1C(=O)NCc1nc(-c2ccc(Cl)cc2)no1`, the solubility kinetic was 37.8 µg/mL (≈ 119 µM).
Compound `CC(NC(=O)CSc1ccccc1C(=O)O)C1CC2CCC1C2` (configuration not stated) has a solubility kinetic greater than 50 µg/mL.
Work on `Nc1ccccc1NC(=O)NC(=O)c1ccccc1` yielded a solubility kinetic of 6.1 µg/mL (≈ 23.9 µM).
With `Cc1csc(=O)n1CC(=O)Nc1ccc(C(C)C)cc1` the solubility kinetic was 29.4 µg/mL (≈ 101 µM).
Compound `Cc1c(N2CCCC2)cc2c(c1N)C(C)(C)CC2(C)C` has a solubility kinetic of 19.2 µg/mL (≈ 70.5 µM).
With `O=C(NCC1CCCO1)c1cc(-c2ccccc2F)no1` (configuration not stated) the solubility kinetic was 42.4 µg/mL (≈ 146 µM).
With `CCOC(=O)C1=C(C)Nc2ccccc2N=C1N` the solubility kinetic was greater than 36.8 µg/mL.
Compound `CNC(=O)c1c(NC(=O)c2cccc(C)c2)sc2c1CCC2` has a solubility kinetic of 0.4 µg/mL (≈ 1.27 µM).
For `O=C(CN1CCCC1)Nc1ccc(OCc2ccccc2)cc1`, the solubility kinetic was greater than 46.6 µg/mL.
For `Cc1ccc(SCCSc2nc(C)cc(=O)[nH]2)cc1`, the solubility kinetic was 2.1 µg/mL (≈ 7.18 µM).
In the case of `Cc1oc(/N=C/c2ccccc2)c(C#N)c1C`, the solubility kinetic is reported as 9.2 µg/mL (≈ 41 µM).
For `CCN(CC)Cc1nc2sc(C)c(C)c2c(=O)[nH]1`, the solubility kinetic was 34.9 µg/mL (≈ 132 µM).
In the case of `Cc1ccc(OCC(=O)Nc2c[nH]c(=O)[nH]c2=O)cc1C`, the solubility kinetic is reported as 1 µg/mL (≈ 3.46 µM).
For `Cc1ccc(CNC(=O)C2CC(=O)N(CCC(C)C)C2)cc1` (configuration not stated), the solubility kinetic was 40.5 µg/mL (≈ 134 µM).
`Cc1ccccc1NC(=S)NC12CN3CN(CN(C3)C1)C2` showed a solubility kinetic greater than 45.5 µg/mL.
For `COc1cc2c(cc1OC)CN(C(=O)c1ccc([N+](=O)[O-])o1)CC2`, the solubility kinetic was greater than 49.8 µg/mL.
For `Fc1ccc(-n2c(-c3ccco3)n[nH]c2=S)cc1`, the solubility kinetic was greater than 39.2 µg/mL.
`Cc1onc(-c2ccccc2Cl)c1C(=O)Nc1ccccc1O` gave a solubility kinetic of 17.2 µg/mL (≈ 52.3 µM).
`CN(CC1COc2ccccc2O1)C(=O)c1ccc(N(C)C)cc1` (configuration not stated) gave a solubility kinetic greater than 49 µg/mL.
For `CCc1cccc(C)c1NC(=O)CCNC(=O)c1cccc(C)c1`, the solubility kinetic was greater than 48.7 µg/mL.
With `CCOc1ccc(S(=O)(=O)Nc2cc(NS(=O)(=O)c3ccc(OCC)cc3)cc(C(=O)O)c2)cc1` the solubility kinetic was greater than 78.1 µg/mL.
`O=C(c1ccccc1)c1c[nH]c2ccccc12` showed a solubility kinetic of 1.9 µg/mL (≈ 8.59 µM).
In the case of `CC(=O)c1cc(C(=O)Nc2ccc3ccccc3c2)c(C)o1`, the solubility kinetic is reported as 34.5 µg/mL (≈ 118 µM).
Work on `CCC(=O)N1CCCc2ccccc21` yielded a solubility kinetic of 22.4 µg/mL (≈ 118 µM).
Compound `c1cc2c3c(cccc3c1)C(N1CCOCC1)=N2` has a solubility kinetic of 34.8 µg/mL (≈ 146 µM).
For `CC(=O)c1ccc(NC(=S)NCc2cccnc2)cc1`, the solubility kinetic was greater than 42.8 µg/mL.
In the case of `Cc1ccsc1C(=O)OCC(=O)Nc1nnc(-c2ccccc2)o1`, the solubility kinetic is reported as greater than 51.5 µg/mL.
For `Cc1oc(S(=O)(=O)N(C)C)cc1C(=O)Nc1ccc(Cl)cc1`, the solubility kinetic was less than 0.4 µg/mL.
`CCc1cc2c(=O)n(CC(=O)NC3CCCCC3)cnc2s1` gave a solubility kinetic of 20.5 µg/mL (≈ 64.2 µM).
Work on `CC1CCCC(NC(=O)COC(=O)COc2ccc(C#N)cc2)C1C` (configuration not stated) yielded a solubility kinetic of 45.4 µg/mL (≈ 132 µM).
Work on `Cc1ccccc1NC(=O)CSc1ccncc1` yielded a solubility kinetic of 36 µg/mL (≈ 139 µM).
`COc1ccc(NC(=O)NCc2cccnc2)c(OC)c1` gave a solubility kinetic greater than 43.1 µg/mL.
Compound `COc1cccc(Cn2c(=O)oc3ccccc32)c1` has a solubility kinetic of 25 µg/mL (≈ 97.9 µM).
`CC1CC(C)CN(CC(=O)c2c[nH]c3ccccc23)C1` (configuration not stated) gave a solubility kinetic of 37.8 µg/mL (≈ 140 µM).
`Cc1cccnc1NC(=O)CCC(=O)c1cccs1` showed a solubility kinetic greater than 41.2 µg/mL.
In the case of `Cc1ccnc(NC(=O)CSc2ccccn2)c1`, the solubility kinetic is reported as 36.7 µg/mL (≈ 142 µM).
Work on `O=C(/C=C(\O)c1ccccc1)C(=O)NNC(=O)c1ccccc1` yielded a solubility kinetic greater than 46.5 µg/mL.
With `Cc1cc(C)c(OCC(=O)OCC(=O)NC2CCCCCCC2)c(C)c1` the solubility kinetic was 23.5 µg/mL (≈ 65 µM).
